Measurements as given in patent US4908363A, “Imidazole derivatives” (Hoffmann-La Roche Inc., priority 1987, dated 1990).

Tests used:
[1] = Acute toxicity, single oral administration; details: mouse, in vivo; single oral administration to mice
Excerpt: The following Table II contains data concerning the acute toxicity of the above three compounds (LD50 in the case of single oral administration to mice).

[2] = Edema-inhibiting properties in carrageen pleuritis; format: in vivo, male rats; details: 1 hour before and 5 hours after carrageen, 24 hours
Procedure: were tested for their edema-inhibiting properties in the animal test described hereinafter:
A pleuritis is produced in male rats (230-250 g), which receive feed and water ad libitum, by the injection of 0.2 ml of a 1% solution of carrageen in sterile, pyrogen-free sodium chloride solution into the right pleural cavity. The substance to be investigated, suspended in an aqueous vehicle (containing 0.5% carboxymethylcellulose, 0.9% sodium chloride, 0.37% Tween 80 and 0.86% benzyl alcohol), or the vehicle alone, are administered by intubation to the animals 1 hour before and 5 hours after the carrageen injection. Twenty-four (24) hours after the carrageen injection, the animals are killed by decapitation, left to bleed out and the pleural cavity is exposed by cutting through the ribs on both sides of the sternum. The exudate is removed from the pleural cavity by means of a pipette and its volume is determined. Thereupon, the pleural cavity is washed once with phosphate-buffered sodium chloride solution containing fetal bovine serum (1:1) and the wash solution is combined with the exudate. The total number of cells in the pleural cavity is determined using a "Coulter Counter" which is calibrated so that red blood corpuscles are not counted. Cell smears on glass plates can be produced directly from the exudate, fixed in methanol and colored for the differential counting of polymorphonuclear leucocytes (PMN) and macrophages; a total of 200 PMN and macrophages can be counted and the results expressed as a percentage of each type of cell present in the pleural exudate.

[3] = Inflammation-inhibiting activity in established Mycobacterium butyricum arthritis (paw volume, plasma fibrinogen, body weight); format: in vivo, male rats; details: by intubation each day over 7 days; for Paw volume change: vehicle 0.46 ± 0.08; for Body weight change: vehicle 13.2 ± 1.8; for Plasma Fibrinogen: vehicle 1233 ± 56
Procedure: Representative compounds of formula I were tested for their inflammation-inhibiting properties in the animal test described hereinafter:
0.1 ml of a 0.5% (weight/volume) suspension of heat-killed and dried Mycobacterium butyricum in heavy mineral oil, containing 0.2% digitionin, is injected into the base of the tail of male rats (120-140 g). The animals are housed individually and receive feed and water ad libitum. The thus-produced arthritis is allowed to develop without treatment during 21 days. Then on the one hand the body weight of the animals is determined and on the other hand the volumes of their two hind paws (by immersing the paws in a mercury plethysmograph up to the height of the lateral malleolus). Thereupon, the animals are divided into groups each comprising six animals in each case of approximately the same average volumes of the hind paws. The substance to be investigated is then administered to them by intubation each day over a period of 7 days. At the end of the treatment period, body weight and volumes of the hind paws are again determined and the changes over the treatment period is calculated. Subsequently, the animals are killed and plasma samples are removed from them in order to determine the fibrinogen in accordance with Exner et al., 1979 (Amer. J. Clin. Path.) after precipitation with ammonium sulfate.
The results determined for three representative compounds of formula I, in the animal test described hereinbefore, are set forth in the following Table I.

## CC(C)(C)c1cc(CNn2ccnc2)cc(C(C)(C)C)c1O [Compound A, 1-(4-Hydroxy-3,5-di-tert.butylbenzylamino)imidazole]
[1]
  LD50: > 1000 mg/kg
[2]; 30 mg/kg p.o.
  % Chance compared with controls, Exudate volume: -51%
  % Chance compared with controls, Number of cells: -12%
[2]; 50 mg/kg p.o.
  % Chance compared with controls, Exudate volume: -60%
  % Chance compared with controls, Number of cells: -14%
[2]; 100 mg/kg p.o.
  % Chance compared with controls, Exudate volume: -68%
  % Chance compared with controls, Number of cells: -23%
[3]; 66 μmol/kg
  Paw volume change: -0.18 ± 0.08 mL
  Body weight change: 30.5 ± 1.2 g
  Plasma Fibrinogen: 1040 ± 75 mg/dL

## CC(C)(C)c1cc(C=Nn2ccnc2)cc(C(C)(C)C)c1O [C, 1-(4-hydroxy-3,5-di-tert.-butylbenzylideneamino)imidazole]
[1]
  LD50: > 1000 mg/kg
[3]; 66 μmol/kg
  Paw volume change: -0.92 ± 0.08 mL
  Body weight change: 31.2 ± 2.0 g
  Plasma Fibrinogen: 544 ± 97 mg/dL

## Cc1nccn1N=Cc1cc(C(C)(C)C)c(O)c(C(C)(C)C)c1 [B, 1-(4-hydroxy-3,5-di-tert.butylbenzylideneamino)-2-methylimidazole]
[1]
  LD50: > 1000 mg/kg
[3]; 22 μmol/kg
  Paw volume change: -0.77 ± 0.05 mL
  Body weight change: 28.2 ± 1.4 g
  Plasma Fibrinogen: 405 ± 126 mg/dL
[3]; 66 μmol/kg
  Paw volume change: -0.84 ± 0.12 mL
  Body weight change: 35.3 ± 1.8 g
  Plasma Fibrinogen: 75 ± 15 mg/dL

## CCCc1nccn1NCc1cc(C(C)(C)C)c(O)c(C(C)(C)C)c1 [E, 1-(4-hydroxy-3,5-di-tert.butylbenzylamino)-2-propylimidazole]
[2]; 30 mg/kg p.o.
  % Chance compared with controls, Exudate volume: -39%
  % Chance compared with controls, Number of cells: +4%
[2]; 100 mg/kg p.o.
  % Chance compared with controls, Exudate volume: -73%
  % Chance compared with controls, Number of cells: -21%

## Cc1nccn1NCc1cc(C(C)(C)C)c(O)c(C(C)(C)C)c1 [D, 1-(4-hydroxy-3,5-di-tert.-butylbenzylamino)-2-methylimidazole]
[2]; 30 mg/kg p.o.
  % Chance compared with controls, Exudate volume: -29%
  % Chance compared with controls, Number of cells: -6%
[2]; 100 mg/kg p.o.
  % Chance compared with controls, Exudate volume: -60%
  % Chance compared with controls, Number of cells: -22%
